Test results as given in US5703113A, “Benzopyran derivatives” (priority 1992, dated 1997).

How the values were obtained:
normotensive rats = experiment: Decrease of blood pressure on normotensive rats measured by average arterial tension; type: in vivo, Wistar rats; design: Pulse: unit not given beside the values; Average arterial tension / Decrease (of average arterial tension): unit not given here
Description: 2. Decrease of blood pressure on normotensive rats measured by average arterial tension
Wistar rats of both sexes weighing 230-260 g were used in the experiments. The rats were narcotised by 40 mg/kg of pentobarbital. The trachea was mounted and a polyethylene canula was introduced into the trachea, vena jugularis sinester and to the arteria carotis communis sinester. The substances to be examined were introduced into the organism of the animal through the duodenum. The pulsatory, systolic and diastolic blood pressure and the pulse were continuously measured by using a Statham type tensiometer head and haemodynamic measuring system produced by the Hungarian firm Experimetria Kft. After the blood pressure has become stable 0.75 μg of adrenaline were administered intravenously to measure the effect of alpha-adrenergic receptors on the blood pressure. After the hypertension has ceased 0.1 μg/kg of isoproterenole is added in order to characterize the activity of the β-adrenerg receptors. After tachycardia has ceased the test compound was administered i.d. and the treatment with the receptor stimulants was repeated after an hour in order to characterize the effect of the test compound on adrenergic receptor subclasses.
Change of the blood pressure on normotensive rats measured on six test animals

[1] = test system: potassium canal (isolated arteria mesenterica anterior); experiment: Potassium canal binding ("bandage") and selectivity on isolated arteria mesenterica anterior of rabbits; settings: isolated rabbit mesenteric artery; KCl vs adrenaline contraction, TEA medium
Description: 1. […] Rabbits of both sexes weighing 2000-2500 g were anesthetized by a hit at the nape, the abdominal wall was cut open and the arteria mesenterica anterior was mounted after exsanguination. The artery was put into a Krebs solution of a temperature of 37° C. infiltrated with carbogene while removing the interstitial residues. Then a 2 mm wide spiral is cut from the artery and this artery stripe is prestretched in an organ pot in Krebs solution of a temperature of 37° C., infiltrated with carbogene, by a stretching of 0.5 g. In the experiment Hugo Basile type dynamometer heads, Hugo Basile type amplifiers and Perkin Elmer type potentiometer have been used for amplifying and fixing the signs. Two parallel organs were used for the qualitative tests. One of them was contracted by adding 30 mmoles of KCl after an incubation time of 1 hour, the other one by 5 μmoles of adrenaline. Then the arteries were relaxed by the cumulative addition of the substance to be examined. The system was washed with a Krebs solution containing 30 mmoles of tetraethyl ammonium bromide (TEA) and the organs were incubated for 30 minutes in a TEA-containing medium. After incubation the organs were again contracted with potassium and noradrenaline and a dilatation was induced by using the substance to be examined. In a quantitative test organs contracted with 5 μmoles of noradrenaline were relaxed with the substance to be examined and the dose inducing a 50% dilatation was determined.

[2] = 1 mg/kg i.d., time 0 min (baseline)
[3] = 5 mg/kg i.d., time 0 min (baseline)
[4] = 10 mg/kg i.d., time 0 min (baseline)

## COc1cc2c(cc1OC)[C@@H](N1CCCC1=O)[C@H](O)C(C)(C)O2 (racemic) [Example 1, (+/-)-6,7-dimethoxy-3,4-dihydro-2,2-dimethyl-trans-4-(2-oxo-1-pyrrolidinyl)-2H-benzo(b)pyran-3-ol]
Normotensive rats; [2]
  Average arterial tension: 107 ± 11
  Pulse: 394 ± 27
Normotensive rats; 1 mg/kg i.d., time 1 min
  Average arterial tension: 56 ± 6
  Decrease (of average arterial tension): -51
  Pulse: 403 ± 34
Normotensive rats; 1 mg/kg i.d., time 10 min
  Average arterial tension: 56 ± 6
  Decrease (of average arterial tension): -51
  Pulse: 400 ± 31
Normotensive rats; 1 mg/kg i.d., time 30 min
  Average arterial tension: 49 ± 4
  Decrease (of average arterial tension): -45
  Pulse: 400 ± 31
Normotensive rats; 1 mg/kg i.d., time 60 min
  Average arterial tension: 71 ± 20
  Decrease (of average arterial tension): -36
  Pulse: 382 ± 31
[1]
  Mechanism of effect: Potassium canal activator
  Selectivity: selective

## COc1cc2c(cc1Cl)[C@@H](N1CCCC1=O)[C@H](O)C(C)(C)O2 (racemic) [Example 10, (+/-)-6-chloro-7-methoxy-3,4-dihydro-2,2-dimethyl-trans-4-(2-oxo-1-pyrrolidinyl)-2H-benzo (b) pyran-3-ol]
Normotensive rats; [3]
  Average arterial tension: 108 ± 15
  Pulse: 402 ± 4
Normotensive rats; 5 mg/kg i.d., time 1 min
  Average arterial tension: 62 ± 3
  Decrease (of average arterial tension): -46
  Pulse: 418 ± 18
Normotensive rats; 5 mg/kg i.d., time 10 min
  Average arterial tension: 68 ± 6
  Decrease (of average arterial tension): -40
  Pulse: 436 ± 18
Normotensive rats; 5 mg/kg i.d., time 30 min
  Average arterial tension: 96 ± 15
  Decrease (of average arterial tension): -12
  Pulse: 424 ± 10
Normotensive rats; 5 mg/kg i.d., time 60 min
  Average arterial tension: 109 ± 26
  Decrease (of average arterial tension): +1
  Pulse: 396 ± 13
[1]
  Mechanism of effect: Potassium canal activator
  Selectivity: selective

## COc1cc2c(cc1C#N)[C@@H](N1CCCC1=O)[C@H](O)C(C)(C)O2 (racemic) [Example 15, (+/-)-6-cyano-7-methoxy-3,4-dihydro-2,2-dimethyl-trans-4-(2-oxo-1-pyrrolidinyl)-2H-benzo (b) pyran-3-ol]
Normotensive rats; [2]
  Average arterial tension: 125 ± 13
  Pulse: 412 ± 45
Normotensive rats; 1 mg/kg i.d., time 1 min
  Average arterial tension: 92 ± 10
  Decrease (of average arterial tension): -33
  Pulse: 439 ± 42
Normotensive rats; 1 mg/kg i.d., time 10 min
  Average arterial tension: 103 ± 5
  Decrease (of average arterial tension): -22
  Pulse: 430 ± 45
Normotensive rats; 1 mg/kg i.d., time 30 min
  Average arterial tension: 118 ± 15
  Decrease (of average arterial tension): -7
  Pulse: 430 ± 45
Normotensive rats; 1 mg/kg i.d., time 60 min
  Average arterial tension: 122 ± 10
  Decrease (of average arterial tension): -3
  Pulse: 412 ± 37
[1]
  Mechanism of effect: Potassium canal activator
  Selectivity: selective

## COc1cc2c(cc1Br)[C@@H](N1CCCC1=O)[C@H](O)C(C)(C)O2 (relative stereo) [Example 9, (+/-) 16-bromo-7-methoxy-3,4-dihydro-2,2-dimethyl-trans-4-(2-oxo-1-pyrrolidinyl)-2H-benzo (b) pyran-3-ol]
Normotensive rats; [4]
  Average arterial tension: 117 ± 19
  Pulse: 406 ± 51
Normotensive rats; 10 mg/kg i.d., time 1 min
  Average arterial tension: 119 ± 16
  Decrease (of average arterial tension): +2
  Pulse: 406 ± 51
Normotensive rats; 10 mg/kg i.d., time 10 min
  Average arterial tension: 58 ± 5
  Decrease (of average arterial tension): -59
  Pulse: 436 ± 62
Normotensive rats; 10 mg/kg i.d., time 30 min
  Average arterial tension: 65 ± 15
  Decrease (of average arterial tension): -52
  Pulse: 430 ± 63
Normotensive rats; 10 mg/kg i.d., time 60 min
  Average arterial tension: 87 ± 18
  Decrease (of average arterial tension): -30
  Pulse: 430 ± 63
[1]
  Mechanism of effect: Potassium canal activator
  Selectivity: selective

## COc1cc2c(cc1[N+](=O)[O-])[C@@H](N1CCCC1=O)[C@H](O)C(C)(C)O2 (relative stereo) [Example 11]
Normotensive rats; [2]
  Average arterial tension: 121 ± 21
  Pulse: 388 ± 10
Normotensive rats; 1 mg/kg i.d., time 1 min
  Average arterial tension: 115 ± 11
  Decrease (of average arterial tension): -6
  Pulse: 373 ± 15
Normotensive rats; 1 mg/kg i.d., time 10 min
  Average arterial tension: 97 ± 23
  Decrease (of average arterial tension): -24
  Pulse: 394 ± 20
Normotensive rats; 1 mg/kg i.d., time 30 min
  Average arterial tension: 105 ± 18
  Decrease (of average arterial tension): -16
  Pulse: 382 ± 18
Normotensive rats; 1 mg/kg i.d., time 60 min
  Average arterial tension: 107 ± 12
  Decrease (of average arterial tension): -14
  Pulse: 382 ± 18
[1]
  Mechanism of effect: Potassium canal activator
  Selectivity: selective

## CC1(C)Oc2ccc(C#N)cc2C(N2CCCC2=O)C1O (stereo not drawn) [BRL 34915, reference compound]
Normotensive rats; [2]
  Average arterial tension: 112 ± 9
  Pulse: 368 ± 44
Normotensive rats; 1 mg/kg i.d., time 1 min
  Average arterial tension: 45 ± 2
  Decrease (of average arterial tension): -67
  Pulse: 368 ± 31
Normotensive rats; 1 mg/kg i.d., time 10 min
  Average arterial tension: 45 ± 2
  Decrease (of average arterial tension): -67
  Pulse: 382 ± 25
Normotensive rats; 1 mg/kg i.d., time 30 min
  Average arterial tension: 49 ± 4
  Decrease (of average arterial tension): -63
  Pulse: 377 ± 19
Normotensive rats; 1 mg/kg i.d., time 60 min
  Average arterial tension: 61 ± 11
  Decrease (of average arterial tension): -51
  Pulse: 373 ± 12
[1]
  Mechanism of effect: Potassium canal activator
  Selectivity: selective
